Here are results for 25 molecules from patent publication US11472788B2, “Benzoimidazoles as selective inhibitors of indoleamine 2,3-dioxygenases” (BEIGENE, LTD., priority 2017, dated 2022).

In test [1] the target is cellular IDO1 in HeLa cells (Homo sapiens (Human), UniProt P14902). As to the kind of experiment: HeLa Cell-Based IDO1 Kyn (Kynurenine) Production Assay. The note with it: IFN-γ induced IDO1, 48 hours incubation, Kyn absorbance at 480 nm. In a few lines:
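Compounds added to HeLa cells together with IFN-γ (100 ng/mL final) and 0.4 mM L-Trp, 48 h at 37 °C. Kynurenine in TCA-deproteinized supernatant measured colorimetrically with 4-(dimethylamino)benzaldehyde at 480 nm; IC50 from four-parameter logistic fit.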

The target of another test is Recombinant IDO1 (Homo sapiens (Human), UniProt P14902). The experiment in a line: IDO1 enzymatic assay. The format is biochemical. The settings on record: 50 nM IDO1, 1.3 mM D-tryptophan, pH 7.5, read-out: Enzyme assay IC50. The method, then: Recombinant IDO1 was overexpressed and purified from E. coli cells with an N-terminal His tag. IDO1 enzymatic assay was carried out using a methodology similar to described in the literature (J. Biol. Chem. (1980), 255, 1339-1345). The reaction mixture contains 50 nM IDO1, 1.3 mM D-tryptophan, 5 mM L-ascorbic acid, […] methylene Blue, 0.4 mg/mL catalase and compound (or DMSO) in a buffer containing 50 mM potassium phosphate pH 7.5 and 0.1% BSA. After incubation at 24° C. for 1.5 hours, absorbance of the reaction mixture was continuously read at 321 nm to monitor the formation of N′-formylkynurenine by a FULOstar OMEGA plate reader (BMG LABTECH) for 1 hour. The enzymatic activity was determined by measuring the slope of the linear absorbance increase as a function of time. The IC50s are calculated based on remaining enzyme activity in the presence of increasing concentrations of compounds.
Chain of Recombinant IDO1 (P14902 whole entry, species assumed): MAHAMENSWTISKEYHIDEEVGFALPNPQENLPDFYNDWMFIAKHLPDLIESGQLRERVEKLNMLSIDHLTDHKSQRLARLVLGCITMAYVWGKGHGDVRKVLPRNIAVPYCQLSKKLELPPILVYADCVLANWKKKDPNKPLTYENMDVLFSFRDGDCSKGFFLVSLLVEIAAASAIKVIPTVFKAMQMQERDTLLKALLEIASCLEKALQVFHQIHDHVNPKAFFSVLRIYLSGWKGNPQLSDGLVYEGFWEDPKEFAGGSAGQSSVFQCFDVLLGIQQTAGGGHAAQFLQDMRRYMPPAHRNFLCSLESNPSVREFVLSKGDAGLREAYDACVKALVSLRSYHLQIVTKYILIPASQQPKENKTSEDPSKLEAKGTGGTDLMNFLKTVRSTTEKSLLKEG

The term EC50 denotes the concentration giving half of the maximal effect. Lower therefore signals a more potent agent. What is called IC50 is the concentration at which inhibition is half-maximal.

Chain of cellular IDO1 in HeLa cells (P14902 whole entry): as the sequence (P14902 whole entry, species assumed) above

Turning to `Fc1ccc2nccc([C@H]3CC[C@@H](Cc4nc5cc(C6CC6)ccc5[nH]4)CC3)c2c1` [Example A4b, 4-((1s,4s)-4-((5-cyclopropyl-1H-benzo[d]imidazol-2-yl)methyl)cyclohexyl)-6-fluoroquinoline], in test [1], the concentration for a half-maximal effect (EC50) is 13 nM. In addition, at Recombinant IDO1, the concentration for half-maximal inhibition (IC50) is above 10 µM.

In test [1], `Fc1ccc2nccc([C@H]3CC[C@H](Cc4nc5cc(F)c(F)cc5[nH]4)CC3)c2c1` [Example A6a, 4-((1r,4r)-4-((5,6-difluoro-1H-benzo[d]imidazol-2-yl)methyl)cyclohexyl)-6-fluoroquinoline] displayed an EC50 of 141 nM. In addition, the IC50 at Recombinant IDO1 was above 10 µM.

In turn, `Fc1ccc2nccc([C@H]3CC[C@@H](Cc4nc5cc(F)c(F)cc5[nH]4)CC3)c2c1` [Example A6b, 4-((1s,4s)-4-((5,6-difluoro-1H-benzo[d]imidazol-2-yl)methyl)cyclohexyl)-6-fluoroquinoline] showed an EC50 in test [1] of 14 nM. Further, the IC50 at Recombinant IDO1 was above 10 µM.

On to `Cc1cc2nc(C[C@H]3CC[C@H](c4ccnc5ccc(F)cc54)CC3)[nH]c2cc1C` [Example A9a, 4-((1r,4r)-4-((5,6-dimethyl-1H-benzo[d]imidazol-2-yl)methyl)cyclohexyl)-6-fluoroquinoline], for which the EC50 in test [1] stood at 186 nM. Also, the IC50 at Recombinant IDO1 is above 10 µM.

With `Cc1cc2nc(C[C@H]3CC[C@@H](c4ccnc5ccc(F)cc54)CC3)[nH]c2cc1C` [Example A9b, 4-((1s,4s)-4-((5,6-dimethyl-1H-benzo[d]imidazol-2-yl)methyl)cyclohexyl)-6-fluoroquinoline], it took 24 nM to reach a half-maximal effect in test [1] (EC50). The IC50 at Recombinant IDO1 was above 10 µM.

As to `Clc1ccc2[nH]c(C[C@H]3CC[C@H](c4ccnc5ccccc54)CC3)nc2c1` [Example A10a, 4-((1r,4r)-4-((5-chloro-1H-benzo[d]imidazol-2-yl)methyl)cyclohexyl)quinoline], the 50% effective concentration (EC50) in test [1] was 91 nM. Besides, on Recombinant IDO1, the IC50 was above 10 µM.

Molecule `Clc1ccc2[nH]c(C[C@H]3CC[C@@H](c4ccnc5ccccc54)CC3)nc2c1` [Example A10b, 4-((1s,4s)-4-((5-chloro-1H-benzo[d]imidazol-2-yl)methyl)cyclohexyl)quinoline] had an EC50 in test [1] of 10 nM. Moreover, the IC50 at Recombinant IDO1 is above 10 µM.

Turning to `Fc1ccc2nccc(C3CCC(Cc4nc5cc(Cl)c(Cl)cc5[nH]4)CC3)c2c1` (centres unmarked) [Example A12, 4-(4-((5,6-dichloro-1H-benzo[d]imidazol-2-yl)methyl)cyclohexyl)-6-fluoroquinoline], the EC50 in test [1] stood at 11 nM. In addition, the IC50 on Recombinant IDO1 was above 10 µM.

In test [1], `COC(=O)c1ccc2[nH]c(CC3CCC(c4ccnc5ccc(F)cc45)CC3)nc2c1` (centres unmarked) [Example A13, methyl 2-((4-(6-fluoroquinolin-4-yl)cyclohexyl)methyl)-1H-benzo[d]imidazole-5-carboxylate] gave an EC50 of 8.4 nM. Also, on Recombinant IDO1, the IC50 is above 10 µM.

In test [1], `O=C(O)c1ccc2[nH]c(CC3CCC(c4ccnc5ccc(F)cc45)CC3)nc2c1` (centres unmarked) [Example A14, 2-((4-(6-fluoroquinolin-4-yl)cyclohexyl)methyl)-1H-benzo[d]imidazole-5-carboxylic acid] showed an EC50 above 10000 nM. At Recombinant IDO1, the IC50 is above 10 µM.

`Clc1ccc2[nH]c(CC3CCC(c4ccc5ccccc5n4)CC3)nc2c1` (centres unmarked) [Example A18, 2-(4-((5-chloro-1H-benzo[d]imidazol-2-yl)methyl)cyclohexyl)quinoline] gave an EC50 in test [1] of 50 nM. The IC50 at Recombinant IDO1 was 5.3 µM.

With `Clc1ccc2[nH]c(CC3CCC(c4cnc5ccccc5c4)CC3)nc2c1` (centres unmarked) [Example A19, 3-(4-((5-chloro-1H-benzo[d]imidazol-2-yl)methyl)cyclohexyl)quinoline], in test [1], a half-maximal effect (EC50) was put at 8.2 nM. At Recombinant IDO1, the IC50 was above 10 µM.

In test [1], `c1ccc2nc(C3CCC(Cc4nc5ccccc5[nH]4)CC3)ccc2c1` (centres unmarked) [Example A20, 2-(4-((1H-benzo[d]imidazol-2-yl)methyl)cyclohexyl)quinoline] showed a concentration for a half-maximal effect (EC50) of 89 nM. In addition, the IC50 at Recombinant IDO1 is above 10 µM.

As to `COc1ccc2[nH]c(CC3CCC(c4ccc5ccccc5n4)CC3)nc2c1` (centres unmarked) [Example A21, 2-(4-((5-methoxy-1H-benzo[d]imidazol-2-yl)methyl)cyclohexyl)quinoline], the EC50 in test [1] worked out at 131 nM. The IC50 on Recombinant IDO1 is above 10 µM.

Molecule `Clc1ccc2[nH]c(CC3CCC(c4cccc5ncccc45)CC3)nc2c1` (centres unmarked) [Example A22, 5-(4-((5-chloro-1H-benzo[d]imidazol-2-yl)methyl)cyclohexyl)quinoline] displayed a half-maximal effective concentration (EC50) in test [1] of 148 nM. For the same molecule, the IC50 at Recombinant IDO1 is above 0.01 µM.

`Clc1ccc2[nH]c(C[C@H]3CC[C@H](c4ccc5ncccc5c4)CC3)nc2c1` [Example A23a, 6-((1r,4r)-4-((5-chloro-1H-benzo[d]imidazol-2-yl)methyl)cyclohexyl)quinoline] yielded an EC50 in test [1] of 56 nM. The 50% inhibitory concentration (IC50) on Recombinant IDO1 was above 10 µM.

`Clc1ccc2[nH]c(C[C@H]3CC[C@@H](c4ccc5ncccc5c4)CC3)nc2c1` [Example A23b, 6-((1s,4s)-4-((5-chloro-1H-benzo[d]imidazol-2-yl)methyl)cyclohexyl)quinoline] displayed an EC50 in test [1] of 24 nM. In addition, the IC50 at Recombinant IDO1 is 3.25 µM.

In test [1], `Fc1ccc([C@H]2CC[C@H](Cc3nc4cc(Cl)ccc4[nH]3)CC2)cc1` [Example A30a, 5-chloro-2-(((1r,4r)-4-(4-fluorophenyl)cyclohexyl)methyl)-1H-benzo[d]imidazole] yielded an EC50 of 44 nM. Also, the IC50 on Recombinant IDO1 is above 10 µM.

As to `Fc1ccc([C@H]2CC[C@@H](Cc3nc4cc(Cl)ccc4[nH]3)CC2)cc1` [Example A30b, 5-chloro-2-(((1s,4s)-4-(4-fluorophenyl)cyclohexyl)methyl)-1H-benzo[d]imidazole], in test [1], the EC50 came out at 39 nM. Further, the IC50 at Recombinant IDO1 is above 10 µM.

On to `c1ccc(C2CCC(Cc3nc4ccccc4[nH]3)CC2)cc1` (centres unmarked) [Example A32, 2-((4-phenylcyclohexyl)methyl)-1H-benzo[d]imidazole], for which the EC50 in test [1] worked out at 143 nM. Besides, the IC50 at Recombinant IDO1 is 8.1 µM.

In turn, `FC(F)(F)c1ccc2[nH]c(C[C@H]3CC[C@H](c4ccccc4)CC3)nc2c1` [Example A33a, 2-(((1r,4r)-4-phenylcyclohexyl)methyl)-5-(trifluoromethyl)-1H-benzo[d]imidazole] gave an EC50 in test [1] above 10000 nM. Further, the IC50 on Recombinant IDO1 was above 10 µM.

For the molecule `FC(F)(F)c1ccc2[nH]c(C[C@H]3CC[C@@H](c4ccccc4)CC3)nc2c1` [Example A33b, 2-(((1s,4s)-4-phenylcyclohexyl)methyl)-5-(trifluoromethyl)-1H-benzo[d]imidazole], the EC50 in test [1] stood at 8.2 nM. Moreover, the IC50 at Recombinant IDO1 came to 8.2 µM.

`Clc1ccc2[nH]c(C[C@H]3CC[C@H](c4ccccc4)CC3)nc2c1` [Example A34a, 5-chloro-2-(((1r,4r)-4-phenylcyclohexyl)methyl)-1H-benzo[d]imidazole] yielded an EC50 in test [1] of 168 nM. Besides, the half-maximal inhibitory concentration (IC50) at Recombinant IDO1 is 8 µM.

Turning to `Clc1ccc2[nH]c(C[C@H]3CC[C@@H](c4ccccc4)CC3)nc2c1` [Example A34b, 5-chloro-2-(((1s,4s)-4-phenylcyclohexyl)methyl)-1H-benzo[d]imidazole], the response in test [1] was half-maximal at 87 nM (EC50). In addition, the IC50 on Recombinant IDO1 worked out at 4.8 µM.

Molecule `Clc1cccc2[nH]c(C[C@H]3CC[C@@H](c4ccccc4)CC3)nc12` [Example A35, 4-chloro-2-(((1s,4s)-4-phenylcyclohexyl)methyl)-1H-benzo[d]imidazole] yielded an EC50 in test [1] of 107 nM. The IC50 at Recombinant IDO1 is above 10 µM.
